According to ChEMBL document CHEMBL1201862, “PubChem BioAssay data set” (2004):
Active and inactive are the calls of the source.

Assays:
[1] = target: T1, Alkaline phosphatase, tissue-nonspecific isozyme (Homo sapiens, UniProt P05186); experiment: TNAP enzyme inhibition by screening hits, dose response, selectivity assay for mouse IAP inhibitor project, biochemical, human TNAP, uHTS hits (AID 488906); assay type: functional
T1 sequence (P05186 whole entry): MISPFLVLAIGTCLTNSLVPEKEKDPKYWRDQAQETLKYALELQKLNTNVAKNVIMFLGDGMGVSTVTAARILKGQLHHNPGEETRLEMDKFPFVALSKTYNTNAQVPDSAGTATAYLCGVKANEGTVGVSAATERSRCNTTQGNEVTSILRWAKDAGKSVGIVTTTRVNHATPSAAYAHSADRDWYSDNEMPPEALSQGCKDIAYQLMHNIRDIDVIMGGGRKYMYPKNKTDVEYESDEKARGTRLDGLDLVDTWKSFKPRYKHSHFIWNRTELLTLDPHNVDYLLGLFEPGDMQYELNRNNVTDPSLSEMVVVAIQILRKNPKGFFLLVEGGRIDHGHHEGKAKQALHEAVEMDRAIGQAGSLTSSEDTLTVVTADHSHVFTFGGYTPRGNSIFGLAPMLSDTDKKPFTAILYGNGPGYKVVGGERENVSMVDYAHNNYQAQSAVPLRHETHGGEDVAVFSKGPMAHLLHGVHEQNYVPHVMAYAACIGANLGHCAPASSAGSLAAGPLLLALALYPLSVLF

[2] = target: Large T antigen (Simian virus 40, UniProt P03070); assay type: functional, Betapolyomavirus macacae;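 also: Confirmatory-stage PubChem screen for compounds that inhibit SV40 T antigen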
[3] = target: T2, Protein RecA (Mycobacterium tuberculosis, UniProt P9WHJ3); experiment: Fluorescence Cell-Free Homogeneous Dose Retest to Identify Inhibitors of RecA-Intein Splicing Activity. [Related pubchem assays (depositor defined):AID2097, AID2223, AID489010, AID492950]; assay type: functional
T2 sequence (P9WHJ3 whole entry): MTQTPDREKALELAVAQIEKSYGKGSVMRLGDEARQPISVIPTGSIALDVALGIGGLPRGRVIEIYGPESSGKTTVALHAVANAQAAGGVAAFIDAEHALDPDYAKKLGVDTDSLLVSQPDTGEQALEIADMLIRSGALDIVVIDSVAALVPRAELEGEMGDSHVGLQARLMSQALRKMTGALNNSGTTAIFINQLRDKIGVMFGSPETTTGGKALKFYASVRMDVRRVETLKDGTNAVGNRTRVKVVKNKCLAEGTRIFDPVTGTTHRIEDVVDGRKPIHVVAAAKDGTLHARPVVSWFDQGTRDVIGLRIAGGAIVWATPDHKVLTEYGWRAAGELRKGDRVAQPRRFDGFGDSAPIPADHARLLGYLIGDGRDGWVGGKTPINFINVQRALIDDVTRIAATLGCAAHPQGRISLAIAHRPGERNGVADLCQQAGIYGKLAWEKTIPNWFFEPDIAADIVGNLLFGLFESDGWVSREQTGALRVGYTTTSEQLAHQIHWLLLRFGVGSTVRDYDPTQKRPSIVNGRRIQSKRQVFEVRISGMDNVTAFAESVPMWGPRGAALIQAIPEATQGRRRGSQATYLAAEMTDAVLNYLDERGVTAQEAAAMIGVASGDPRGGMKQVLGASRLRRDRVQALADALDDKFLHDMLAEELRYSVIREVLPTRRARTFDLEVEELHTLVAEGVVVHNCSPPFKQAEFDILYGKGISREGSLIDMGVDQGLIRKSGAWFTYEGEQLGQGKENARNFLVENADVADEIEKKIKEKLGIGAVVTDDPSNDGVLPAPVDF

[4] = target: Intestinal-type alkaline phosphatase (Mus musculus, UniProt P24822); experiment: PubChem AID 488785; assay type: functional
[5] = target: Intestinal-type alkaline phosphatase (Homo sapiens, UniProt P09923); experiment: inhibition of human intestinal alkaline phosphatase – biochemical, dose response (AID 488876); assay type: functional
[6] = target: T3, Replicative DNA helicase DnaB (Mycobacterium tuberculosis, UniProt P9WMR3); experiment: DnaB intein splicing inhibitors, dose response, biochemical, cell-free fluorescence (AID 449749); assay type: functional
T3 sequence (P9WMR3 whole entry): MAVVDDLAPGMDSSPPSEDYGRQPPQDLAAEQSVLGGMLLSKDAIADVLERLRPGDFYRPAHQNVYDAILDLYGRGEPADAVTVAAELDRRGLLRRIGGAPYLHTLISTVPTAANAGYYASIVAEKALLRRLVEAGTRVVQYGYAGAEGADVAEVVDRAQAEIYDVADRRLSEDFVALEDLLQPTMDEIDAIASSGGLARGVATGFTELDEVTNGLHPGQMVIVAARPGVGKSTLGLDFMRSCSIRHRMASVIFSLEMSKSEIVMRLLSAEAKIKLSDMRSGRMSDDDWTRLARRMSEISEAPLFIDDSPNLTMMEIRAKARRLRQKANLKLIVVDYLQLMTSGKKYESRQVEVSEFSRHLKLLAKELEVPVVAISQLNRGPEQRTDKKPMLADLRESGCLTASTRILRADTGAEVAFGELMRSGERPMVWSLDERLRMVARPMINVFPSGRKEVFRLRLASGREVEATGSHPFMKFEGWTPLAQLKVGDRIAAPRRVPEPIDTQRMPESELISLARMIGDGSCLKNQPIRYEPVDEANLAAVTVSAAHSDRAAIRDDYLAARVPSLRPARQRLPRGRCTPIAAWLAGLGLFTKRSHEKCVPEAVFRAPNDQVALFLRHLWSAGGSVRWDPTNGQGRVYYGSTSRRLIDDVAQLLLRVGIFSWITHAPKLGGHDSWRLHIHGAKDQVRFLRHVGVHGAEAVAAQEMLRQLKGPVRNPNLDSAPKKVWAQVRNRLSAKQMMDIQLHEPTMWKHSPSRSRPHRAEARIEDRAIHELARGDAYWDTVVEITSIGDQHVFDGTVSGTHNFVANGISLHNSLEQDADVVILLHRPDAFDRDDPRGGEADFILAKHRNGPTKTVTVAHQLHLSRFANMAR

[7] = target: 5-hydroxytryptamine receptor 5A (Homo sapiens, UniProt P47898); experiment: Counterscreen for agonists of OPRM1-OPRD1 heterodimerization: luminescence-based cell-based high throughput dose response assay to identify agonists of 5-hydroxytryptamine (serotonin) 5A receptor (HTR5A). [Related pubchem assays (depositor defined):AID504326, AID504355, AID504692, AID504904, AID504905]; assay type: functional
[8] = target: Delta-type opioid receptor (Homo sapiens, UniProt P41143); experiment: Counterscreen for agonists of heterodimerization of the mu 1 (OPRM1) and delta 1 (OPRD1) opioid receptors: Luminescence-based cell-based high throughput dose response assay to identify agonists of OPRD1 homodimerization. [Related pubchem assays (depositor defined):AID504326, AID504355, AID504692, AID504904, AID504905]; assay type: functional
[9] = target: Mu-type opioid receptor (Homo sapiens, UniProt P35372); experiment: Counterscreen for agonists of heterodimerization of the mu 1 (OPRM1) and delta 1 (OPRD1) opioid receptors: Luminescence-based cell-based high throughput dose response assay to identify agonists of OPRM1 homodimerization.; assay type: functional;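 also: U2OS cells expressing OPRM1 and beta-arrestin as split beta-galactosidase partners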
[10] = target: Opioid receptors; mu & delta (Homo sapiens, UniProt P41143+P35372); experiment: agonists of MOR-DOR heterodimerization, dose response, cell-based, luminescence (AID 588407); assay type: functional
[11] = tested on: Streptococcus sp. 'group A'; experiment: growth inhibition of control SK(-) GAS strain, dose response, counter-screen for streptokinase expression inhibitor project, luminescence, kanamycin, BacTiterGlo, confirmation (AID 1900); assay type: functional, organism-based
[12] = target: T4, G-protein coupled receptor 35 (Homo sapiens, UniProt Q9HC97); experiment: SAR analysis of Antagonists of the GPR35 Receptor using an Image-Based Assay - Set 3. [Related pubchem assays (depositor defined):AID2013, AID2026]; assay type: functional
[13] = target: T5, G-protein coupled receptor 55 (Homo sapiens, UniProt Q9Y2T6); experiment: GPR55 antagonists blocking LPI-driven arrestin recruitment, primary screen, imaging, U2OS, beta-arrestin-GFP, LPI agonist (AID 2013); assay type: functional;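 also: antagonist potency measured as reduced agonist-driven arrestin aggregation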
[14] = target: T6, Cannabinoid receptor 2 (Homo sapiens, UniProt P34972); experiment: SAR analysis of agonists of the Cannabinoid Receptor 2 using an Image-Based Assay. [Related pubchem assays (depositor defined):AID2013, AID2026]; assay type: functional
[15] = target: T7, Cannabinoid receptor 1 (Homo sapiens, UniProt P21554); experiment: SAR analysis of antagonists of the Cannabinoid Receptor 1 using an Image-Based Assay - Set 2. [Related pubchem assays (depositor defined):AID2013, AID2026]; assay type: functional
[16] = target: T8, Streptokinase A (Streptococcus pyogenes serotype M1, UniProt P10520); experiment: S. pyogenes streptokinase expression inhibitors, potency, dose response, plasminogen activation absorbance, OD405 (AID 1914); assay type: functional, Streptococcus pyogenes M1 GAS;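 also: secreted streptokinase activity via plasminogen activation per viability signal from cell pellet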
T8 sequence (P10520 whole entry): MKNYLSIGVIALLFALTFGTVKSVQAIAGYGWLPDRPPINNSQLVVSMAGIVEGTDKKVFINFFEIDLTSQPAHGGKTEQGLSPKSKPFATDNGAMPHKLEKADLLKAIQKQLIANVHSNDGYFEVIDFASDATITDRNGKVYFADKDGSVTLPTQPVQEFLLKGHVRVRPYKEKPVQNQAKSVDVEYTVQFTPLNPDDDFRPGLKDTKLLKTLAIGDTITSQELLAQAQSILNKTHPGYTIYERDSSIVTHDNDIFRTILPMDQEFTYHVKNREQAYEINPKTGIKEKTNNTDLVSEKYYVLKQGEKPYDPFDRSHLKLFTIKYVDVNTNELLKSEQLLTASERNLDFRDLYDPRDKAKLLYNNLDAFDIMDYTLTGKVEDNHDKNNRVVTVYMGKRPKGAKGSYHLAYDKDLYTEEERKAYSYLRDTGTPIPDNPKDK

[17] = target: T6, Cannabinoid receptor 2; experiment: SAR analysis of antagonists of the Cannabinoid Receptor 2 using an Image-Based Assay. [Related pubchem assays (depositor defined):AID2013, AID2026]; assay type: functional
[18] = target: T4, G-protein coupled receptor 35; experiment: SAR analysis of Agonists of the GPR35 Receptor using an Image-Based Assay - Set 2. [Related pubchem assays (depositor defined):AID2013, AID2026]; assay type: functional
[19] = target: T5, G-protein coupled receptor 55; experiment: GPR55 antagonist potency of analogs, SAR follow-up, imaging, U2OS, beta-arrestin-GFP, LPI agonist, set 2 (AID 2820); assay type: functional
[20] = target: T9, Short transient receptor potential channel 4 (Mus musculus, UniProt Q9QUQ5); experiment: mouse TRPC4 channel inhibitors, dose response, cell-based, HEK293 TRPC4/mu-opioid, Fluo-4 calcium (AID 434942); assay type: functional;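 also: potency of inhibitors blocking the TRPC4 calcium response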
T9 sequence (Q9QUQ5 whole entry): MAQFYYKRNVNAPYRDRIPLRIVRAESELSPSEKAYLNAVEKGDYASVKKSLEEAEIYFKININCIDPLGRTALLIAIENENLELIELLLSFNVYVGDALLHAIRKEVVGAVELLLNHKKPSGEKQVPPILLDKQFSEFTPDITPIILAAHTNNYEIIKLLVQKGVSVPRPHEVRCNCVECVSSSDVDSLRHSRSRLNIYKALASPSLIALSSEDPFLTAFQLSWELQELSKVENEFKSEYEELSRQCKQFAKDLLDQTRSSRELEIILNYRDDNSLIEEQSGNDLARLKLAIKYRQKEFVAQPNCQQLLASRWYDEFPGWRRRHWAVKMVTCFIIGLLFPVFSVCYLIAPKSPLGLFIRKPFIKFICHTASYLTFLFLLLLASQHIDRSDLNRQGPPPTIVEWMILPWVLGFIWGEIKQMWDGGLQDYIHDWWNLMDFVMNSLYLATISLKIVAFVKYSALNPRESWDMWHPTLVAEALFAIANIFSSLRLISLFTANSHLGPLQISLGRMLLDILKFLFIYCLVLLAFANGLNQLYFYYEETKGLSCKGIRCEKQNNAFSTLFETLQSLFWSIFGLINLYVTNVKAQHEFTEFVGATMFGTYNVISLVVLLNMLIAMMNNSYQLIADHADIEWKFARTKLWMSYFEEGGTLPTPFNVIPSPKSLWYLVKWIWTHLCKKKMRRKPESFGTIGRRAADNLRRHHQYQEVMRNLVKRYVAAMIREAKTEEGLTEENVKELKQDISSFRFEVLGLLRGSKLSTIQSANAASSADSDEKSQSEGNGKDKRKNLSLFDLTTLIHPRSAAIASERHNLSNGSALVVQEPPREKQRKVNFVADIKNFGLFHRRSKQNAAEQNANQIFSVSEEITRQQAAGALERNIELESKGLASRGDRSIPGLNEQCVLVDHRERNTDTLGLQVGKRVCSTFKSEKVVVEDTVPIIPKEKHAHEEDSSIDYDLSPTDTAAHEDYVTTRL

[21] = target: T7, Cannabinoid receptor 1; experiment: SAR analysis of agonists of the Cannabinoid Receptor 1 using an Image-Based Assay - Set 2. [Related pubchem assays (depositor defined):AID2013, AID2026]; assay type: functional
[22] = tested on: Streptococcus; experiment: Group A Streptococcus viability loss, dose response, counter-screen for streptokinase expression inhibitor project, luminescence, BacTiterGlo (AID 1915); assay type: functional, organism-based;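 also: potency for reduction of bacterial viability or growth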

T4 sequence (Q9HC97 whole entry): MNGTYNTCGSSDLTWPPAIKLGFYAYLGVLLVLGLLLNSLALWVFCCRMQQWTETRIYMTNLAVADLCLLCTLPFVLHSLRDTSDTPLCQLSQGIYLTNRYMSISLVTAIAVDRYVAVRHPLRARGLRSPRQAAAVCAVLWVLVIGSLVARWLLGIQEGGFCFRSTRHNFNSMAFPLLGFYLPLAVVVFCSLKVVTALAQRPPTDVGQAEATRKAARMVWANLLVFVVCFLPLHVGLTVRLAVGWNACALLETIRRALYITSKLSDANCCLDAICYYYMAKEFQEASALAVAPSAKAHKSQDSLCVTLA
T5 sequence (Q9Y2T6 whole entry): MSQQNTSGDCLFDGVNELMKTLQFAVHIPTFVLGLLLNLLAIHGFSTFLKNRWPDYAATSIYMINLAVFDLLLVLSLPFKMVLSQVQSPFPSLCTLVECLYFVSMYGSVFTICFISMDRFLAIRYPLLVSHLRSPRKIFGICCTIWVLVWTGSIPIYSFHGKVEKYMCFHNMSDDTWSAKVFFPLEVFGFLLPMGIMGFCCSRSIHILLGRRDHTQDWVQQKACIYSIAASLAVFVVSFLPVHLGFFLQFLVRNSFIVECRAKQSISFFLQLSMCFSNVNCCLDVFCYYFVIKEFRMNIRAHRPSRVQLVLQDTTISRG
T6 sequence (P34972 whole entry): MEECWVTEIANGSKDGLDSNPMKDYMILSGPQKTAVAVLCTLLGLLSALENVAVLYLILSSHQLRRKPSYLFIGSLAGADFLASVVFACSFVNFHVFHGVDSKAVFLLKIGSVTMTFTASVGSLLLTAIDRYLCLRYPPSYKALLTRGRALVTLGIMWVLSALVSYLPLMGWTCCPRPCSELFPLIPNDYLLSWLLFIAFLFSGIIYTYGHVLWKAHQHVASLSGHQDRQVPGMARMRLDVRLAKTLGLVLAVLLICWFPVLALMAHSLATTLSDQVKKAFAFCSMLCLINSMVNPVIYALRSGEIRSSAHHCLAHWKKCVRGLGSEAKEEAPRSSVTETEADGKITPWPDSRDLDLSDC
T7 sequence (P21554 whole entry): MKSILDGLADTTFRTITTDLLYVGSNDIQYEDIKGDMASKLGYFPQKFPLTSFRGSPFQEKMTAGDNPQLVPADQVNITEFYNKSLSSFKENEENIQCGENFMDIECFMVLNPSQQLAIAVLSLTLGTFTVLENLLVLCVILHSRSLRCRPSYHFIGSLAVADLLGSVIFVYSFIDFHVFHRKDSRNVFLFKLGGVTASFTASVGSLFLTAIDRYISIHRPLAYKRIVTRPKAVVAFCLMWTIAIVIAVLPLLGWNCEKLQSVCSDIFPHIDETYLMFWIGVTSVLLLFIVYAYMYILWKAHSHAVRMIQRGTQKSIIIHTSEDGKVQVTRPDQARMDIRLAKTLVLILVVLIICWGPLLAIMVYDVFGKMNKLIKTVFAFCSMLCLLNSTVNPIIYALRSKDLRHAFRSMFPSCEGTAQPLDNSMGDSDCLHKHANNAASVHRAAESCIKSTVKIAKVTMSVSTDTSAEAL
Chain of Intestinal-type alkaline phosphatase (Mus musculus, UniProt P24822) (P24822 whole entry): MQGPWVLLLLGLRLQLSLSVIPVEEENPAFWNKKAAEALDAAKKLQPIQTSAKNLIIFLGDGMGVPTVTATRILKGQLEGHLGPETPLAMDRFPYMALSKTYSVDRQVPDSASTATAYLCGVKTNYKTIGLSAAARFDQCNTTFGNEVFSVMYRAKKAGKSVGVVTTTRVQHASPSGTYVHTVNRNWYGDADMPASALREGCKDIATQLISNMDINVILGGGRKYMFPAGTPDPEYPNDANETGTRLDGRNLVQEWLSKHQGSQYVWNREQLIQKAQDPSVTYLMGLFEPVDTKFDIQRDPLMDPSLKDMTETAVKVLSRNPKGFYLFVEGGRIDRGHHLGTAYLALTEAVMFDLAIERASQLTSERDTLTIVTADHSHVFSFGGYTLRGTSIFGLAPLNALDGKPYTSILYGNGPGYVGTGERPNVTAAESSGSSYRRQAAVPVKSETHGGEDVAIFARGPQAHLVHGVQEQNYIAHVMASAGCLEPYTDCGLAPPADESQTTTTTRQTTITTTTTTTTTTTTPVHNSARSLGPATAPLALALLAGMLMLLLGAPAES
Chain of Delta-type opioid receptor (P41143 whole entry): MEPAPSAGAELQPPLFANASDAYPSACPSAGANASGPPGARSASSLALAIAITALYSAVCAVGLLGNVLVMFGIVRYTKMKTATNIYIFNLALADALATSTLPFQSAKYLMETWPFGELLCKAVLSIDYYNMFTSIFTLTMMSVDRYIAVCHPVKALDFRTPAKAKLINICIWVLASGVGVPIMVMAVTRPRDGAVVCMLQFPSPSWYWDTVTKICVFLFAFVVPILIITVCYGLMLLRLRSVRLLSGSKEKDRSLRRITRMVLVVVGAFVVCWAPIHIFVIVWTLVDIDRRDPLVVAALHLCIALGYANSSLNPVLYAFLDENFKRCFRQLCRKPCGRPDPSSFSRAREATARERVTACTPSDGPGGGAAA
Chain of Intestinal-type alkaline phosphatase (Homo sapiens, UniProt P09923) (P09923 whole entry): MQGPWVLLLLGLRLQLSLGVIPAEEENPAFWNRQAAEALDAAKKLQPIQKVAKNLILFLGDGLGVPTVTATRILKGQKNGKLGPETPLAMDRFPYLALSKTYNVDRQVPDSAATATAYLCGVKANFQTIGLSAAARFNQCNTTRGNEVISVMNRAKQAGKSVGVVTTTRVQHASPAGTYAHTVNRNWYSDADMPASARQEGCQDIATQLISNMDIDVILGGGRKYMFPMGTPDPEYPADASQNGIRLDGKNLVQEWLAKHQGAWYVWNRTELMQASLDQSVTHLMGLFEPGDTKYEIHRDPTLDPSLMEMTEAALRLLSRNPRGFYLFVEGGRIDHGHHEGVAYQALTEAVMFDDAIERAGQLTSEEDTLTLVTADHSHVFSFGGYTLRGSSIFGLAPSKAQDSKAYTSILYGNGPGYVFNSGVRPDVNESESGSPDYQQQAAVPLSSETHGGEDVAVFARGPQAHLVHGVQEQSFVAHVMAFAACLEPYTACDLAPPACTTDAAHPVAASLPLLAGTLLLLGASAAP
Chain of 5-hydroxytryptamine receptor 5A (P47898 whole entry): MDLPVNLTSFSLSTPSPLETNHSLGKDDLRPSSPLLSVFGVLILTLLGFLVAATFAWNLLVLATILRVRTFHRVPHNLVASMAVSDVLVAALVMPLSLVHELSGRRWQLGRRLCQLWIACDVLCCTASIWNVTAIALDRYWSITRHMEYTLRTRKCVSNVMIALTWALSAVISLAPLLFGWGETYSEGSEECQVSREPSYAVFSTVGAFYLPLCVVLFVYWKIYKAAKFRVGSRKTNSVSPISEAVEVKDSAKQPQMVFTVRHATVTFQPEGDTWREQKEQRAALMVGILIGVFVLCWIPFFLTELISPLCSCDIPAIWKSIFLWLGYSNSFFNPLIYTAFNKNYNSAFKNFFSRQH
Chain of Large T antigen (P03070 whole entry): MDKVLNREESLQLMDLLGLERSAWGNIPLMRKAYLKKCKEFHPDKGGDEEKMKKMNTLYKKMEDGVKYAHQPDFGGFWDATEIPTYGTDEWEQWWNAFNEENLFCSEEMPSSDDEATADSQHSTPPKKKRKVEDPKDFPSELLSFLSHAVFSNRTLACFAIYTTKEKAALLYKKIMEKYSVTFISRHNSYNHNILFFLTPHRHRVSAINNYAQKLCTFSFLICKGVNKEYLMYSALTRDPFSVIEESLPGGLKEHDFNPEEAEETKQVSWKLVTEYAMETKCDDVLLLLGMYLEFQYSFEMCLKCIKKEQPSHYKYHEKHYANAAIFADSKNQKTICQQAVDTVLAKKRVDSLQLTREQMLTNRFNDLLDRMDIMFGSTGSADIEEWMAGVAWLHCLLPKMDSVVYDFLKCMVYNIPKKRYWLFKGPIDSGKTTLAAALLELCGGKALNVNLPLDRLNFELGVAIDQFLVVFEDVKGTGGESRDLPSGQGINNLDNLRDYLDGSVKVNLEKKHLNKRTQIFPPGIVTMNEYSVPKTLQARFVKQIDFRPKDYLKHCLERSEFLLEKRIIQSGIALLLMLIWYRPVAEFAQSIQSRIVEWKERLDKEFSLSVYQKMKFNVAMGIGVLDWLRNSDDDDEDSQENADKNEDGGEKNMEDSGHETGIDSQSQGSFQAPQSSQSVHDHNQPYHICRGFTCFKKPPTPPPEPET
Chain of Mu-type opioid receptor (P35372 whole entry): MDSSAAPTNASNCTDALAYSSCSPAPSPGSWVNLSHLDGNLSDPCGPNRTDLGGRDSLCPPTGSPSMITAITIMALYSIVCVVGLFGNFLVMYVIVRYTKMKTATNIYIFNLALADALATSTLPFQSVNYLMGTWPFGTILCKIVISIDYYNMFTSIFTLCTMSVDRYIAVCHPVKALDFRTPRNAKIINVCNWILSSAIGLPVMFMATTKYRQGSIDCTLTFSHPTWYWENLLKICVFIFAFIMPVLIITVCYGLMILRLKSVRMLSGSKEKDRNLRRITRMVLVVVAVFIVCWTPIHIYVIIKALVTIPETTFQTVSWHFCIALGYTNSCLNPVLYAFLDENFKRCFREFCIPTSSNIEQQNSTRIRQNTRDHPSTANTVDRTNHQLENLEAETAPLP

Compound: Oc1cc(O)c2c(c1)O[C@H](c1ccc(O)c(O)c1)[C@@H](O)C2
- IC50 [1]: 37.1 µM (active)
- IC50 [2]: 11.4 µM (active)
- EC50 [3]: 4.11 µM (active)
- IC50 [4]: 15.5 µM (active)
- IC50 [5]: > 100 µM (inactive)
- AC50 [6]: 22.2 µM (active)

Compound: c1ccc(C2[C@H]3CN(Cc4cccnc4)[C@H](c4ccccc4)C34CC2(c2cccnc2)C4)cc1 (some centres undefined)
- EC50 [7]: > 92.5 µM (inactive)
- EC50 [3]: 16.7 µM (active)
- EC50 [8]: 3.21 µM (active)
- AC50 [6]: 3.72 µM (active)
- EC50 [9]: > 92.5 µM (inactive)
- EC50 [10]: > 3.424 µM

Compound: COc1ccc(NC(=O)c2cnn3c(O)cc(C4CCN(C(=O)OC(C)(C)C)CC4)nc23)cc1Cl
- EC50 [11]: 3.36 µM (active)
- IC50 [12]: 29.4 µM (inactive)
- IC50 [13]: < 500 nM (active)
- EC50 [14]: > 32 µM (inactive)
- IC50 [15]: > 32 µM (inactive)
- EC50 [16]: > 150 µM (not active)
- IC50 [17]: > 32 µM (inactive)
- EC50 [18]: 506 nM (active)
- IC50 [19]: 422 nM (active)
- EC50 [20]: 1.33 µM (active)
- EC50 [21]: > 32 µM (inactive)
- EC50 [22]: 17.8 µM (active)
